Assay results from patent US20170334899A1, “AMINO-SUBSTITUTED ISOTHIAZOLES” (Bayer Pharma Aktiengesellschaft, priority 2014, published 2017).

Biological target: T1, catalytic domain of human Bub1 (amino acids 704-1085) (Homo sapiens, UniProt O43683)
T1 construct: catalytic domain of human Bub1 (amino acids 704-1085); His6 (N); made in house; host or cells: insect cells (Hi5)
Assay: Bub1 kinase assay (TR-FRET)
Assay type: biochemical
Settings: 10 μM ATP, avg, read-out: Bub1 avg (IC50 [mol/l])
In short: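 Readout is the 665/620 nm TR-FRET ratio from anti-phosphoserine antibody, Eu-labelled anti-mouse IgG and streptavidin-XL665, scaled between no-enzyme and uninhibited controls. Reaction: 1 μM biotinylated peptide, 10 μM ATP, 60 min, 22 °C, after 15 min compound preincubation with His6-Bub1 (704-1085, insect-expressed, ~200 ng/ml).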

T1 sequence (O43683 704-1085): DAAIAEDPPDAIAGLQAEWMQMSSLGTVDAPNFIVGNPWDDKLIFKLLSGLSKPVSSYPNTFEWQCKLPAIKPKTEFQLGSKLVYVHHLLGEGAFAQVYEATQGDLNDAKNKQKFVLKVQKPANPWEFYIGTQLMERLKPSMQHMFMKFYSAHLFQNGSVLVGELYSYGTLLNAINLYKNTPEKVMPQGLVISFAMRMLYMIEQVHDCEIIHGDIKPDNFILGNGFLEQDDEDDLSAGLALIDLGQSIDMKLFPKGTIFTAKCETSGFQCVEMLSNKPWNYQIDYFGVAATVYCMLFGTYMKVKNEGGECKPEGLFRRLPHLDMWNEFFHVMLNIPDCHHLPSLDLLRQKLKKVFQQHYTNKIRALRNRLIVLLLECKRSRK

IC50 [µM]	SMILES
≥ 20	Cc1nsc(Nc2cnc3ccccc3n2)c1C(=O)Nc1ccc(OCCCNC(=O)OC(C)(C)C)nc1 [Example 42, tert-Butyl (3-{[5-({[3-methyl-5-(quinoxalin-2-ylamino)-1,2-thiazol-4-yl]carbonyl}-amino)pyridin-2-yl]oxy}propyl)carbamate]
≥ 20	Cc1nsc(Nc2cc(C#N)ccn2)c1C(=O)Nc1ccc(OCCCNC(=O)OC(C)(C)C)nc1 [Example 43, tert-Butyl [3-({5-[({5-[(4-cyanopyridin-2-yl)amino]-3-methyl-1,2-thiazol-4-yl}-carbonyl)amino]pyridin-2-yl}oxy)propyl]carbamate]
≥ 20	Cc1nsc(Nc2cc(C#N)ccn2)c1C(=O)Nc1ccc(OCCCN)nc1 [Example 44, N-[6-(3-Aminopropoxy)pyridin-3-yl]-5-[(4-cyanopyridin-2-yl)amino]-3-methyl-1,2-thiazole-4-carboxamide]
≥ 20	Cc1nsc(Nc2cc(C#N)ccn2)c1C(=O)Nc1ccc(OCCCNCC(F)F)nc1 [Example 45, 5-[(4-Cyanopyridin-2-yl)amino]-N-(6-{3-[(2,2-difluoroethyl)amino]propoxy}pyridin-3-yl)-3-methyl-1,2-thiazole-4-carboxamide]
≥ 20	Cc1nsc(Nc2ccc(C#N)cn2)c1C(=O)Nc1ccc(OCCCNC(=O)OC(C)(C)C)nc1 [Example 46, tert-Butyl [3-({5-[({5-[(5-cyanopyridin-2-yl)amino]-3-methyl-1,2-thiazol-4-yl}-carbonyl)amino]pyridin-2-yl}oxy)propyl]carbamate]
≥ 20	Cc1nsc(Nc2cnccn2)c1C(=O)Nc1ccc(OCCCNC(=O)OC(C)(C)C)nc1 [Example 47, tert-Butyl (3-{[5-({[3-methyl-5-(pyrazin-2-ylamino)-1,2-thiazol-4-yl]carbonyl}-amino)pyridin-2-yl]oxy}propyl)carbamate]
≥ 20	Cc1nsc(Nc2cnccn2)c1C(=O)Nc1ccc(OCCCN)nc1 [Example 48, N-[6-(3-Aminopropoxy)pyridin-3-yl]-3-methyl-5-(pyrazin-2-ylamino)-1,2-thiazole-4-carboxamide]
≥ 20	Cc1nsc(Nc2cnc3ccccc3n2)c1C(=O)Nc1cccc(C(=O)OC(C)(C)C)c1 [Example 49, tert-Butyl 3-({[3-methyl-5-(quinoxalin-2-ylamino)-1,2-thiazol-4-yl]carbonyl}amino)-benzoate]
≥ 20	COC(=O)c1cccc(NC(=O)c2c(C)nsc2Nc2cnc3ccccc3n2)c1 [Example 50, Methyl 3-({[3-methyl-5-(quinoxalin-2-ylamino)-1,2-thiazol-4-yl]carbonyl}amino)-benzoate]
1.9	Cc1nsc(Nc2cnc3ccccc3n2)c1C(=O)Nc1cccc(C(=O)O)c1 [Example 51, 3-({[3-Methyl-5-(quinoxalin-2-ylamino)-1,2-thiazol-4-yl]carbonyl}amino)benzoic acid]
9	Cc1nsc(Nc2cnc3ccccc3n2)c1C(=O)Nc1cccc(C(=O)N2CCOCC2)c1 [Example 52, 3-Methyl-N-[3-(morpholin-4-ylcarbonyl)phenyl]-5-(quinoxalin-2-ylamino)-1,2-thiazole-4-carboxamide]
9	Cc1nsc(Nc2cnc3ccccc3n2)c1C(=O)Nc1cccc(C(=O)NC(C)(C)C)c1 [Example 53, N-[3-(tert-Butylcarbamoyl)-phenyl]-3-methyl-5-(quinoxalin-2-ylamino)-1,2-thiazole-4-carboxamide]
16	Cc1nsc(Nc2cnc3ccccc3n2)c1C(=O)Nc1cccc(C(=O)NCC(=O)OC(C)(C)C)c1 [Example 54, tert-Butyl N-[3-({[3-methyl-5-(quinoxalin-2-ylamino)-1,2-thiazol-4-yl]carbonyl}amino)-benzoyl]glycinate]
≥ 20	Cc1nsc(Nc2cnc3ccccc3n2)c1C(=O)Nc1cccc(C(=O)N2CCN(C(=O)OC(C)(C)C)CC2)c1 [Example 55, tert-Butyl 4-[3-({[3-methyl-5-(quinoxalin-2-ylamino)-1,2-thiazol-4-yl]carbonyl}amino)-benzoyl]piperazine-1-carboxylate]
≥ 20	Cc1nsc(Nc2cnc3ccccc3n2)c1C(=O)Nc1cccc(C(=O)N[C@@H](CCC(N)=O)C(=O)OC(C)(C)C)c1 [Example 56, tert-butyl N^2-[3-({[3-methyl-5-(quinoxalin-2-ylamino)-1,2-thiazol-4-yl]carbonyl}amino)-benzoyl]glutaminate]
≥ 20	Cc1nsc(Nc2cnc3ccccc3n2)c1C(=O)Nc1cccc(C(=O)N[C@H](C(=O)OC(C)(C)C)[C@@H](C)OC(C)(C)C)c1 [Example 57, tert-Butyl O-tert-butyl-N-[3-({[3-methyl-5-(quinoxalin-2-ylamino)-1,2-thiazol-4 yl]carbonyl}amino)-benzoyl]threoninate]
> 20	Cc1nsc(Nc2cnc(C(F)(F)F)cn2)c1C(=O)Nc1ccc(F)c(OCC2CCN(CC(F)(F)F)C2)c1 (centres unmarked) [Example 318, N-(4-fluoro-3-{[1-(2,2,2-trifluoroethyl)pyrrolidin-3-yl]methoxy}phenyl)-3-methyl-5-{[5-(trifluoromethyl)pyrazin-2-yl]amino}-1,2-thiazole-4-carboxamide]
≥ 20	Cc1nsc(Nc2cnc(C(F)(F)F)cn2)c1C(=O)Nc1ccc(OC[C@H]2CCCN(CCC(F)(F)F)C2)nc1 [Example 378, 3-methyl-5-{[5-(trifluoromethyl)pyrazin-2-yl]amino}-N-(6-{[(3S)-1-(3,3,3-trifluoropropyl)piperidin-3-yl]methoxy}pyridin-3-yl)-1,2-thiazole-4-carboxamide]
> 20	CCCN1CCC(COc2ccc(NC(=O)c3c(C)nsc3Nc3cnc(C(F)(F)F)cn3)cn2)C(F)(F)C1 (centres unmarked) [Example 394, N-{6-[(3,3-difluoro-1-propylpiperidin-4-yl)methoxy]pyridin-3-yl}-3-methyl-5-{[5-(trifluoromethyl)pyrazin-2-yl]amino}-1,2-thiazole-4-carboxamide]
> 20	Cc1nsc(Nc2cnc(C(F)(F)F)cn2)c1C(=O)Nc1ccc(F)c(OC[C@H]2CCCN(CC(F)F)C2)c1 [Example 400, N-(3-{[(3S)-1-(2,2-difluoroethyl)piperidin-3-yl]methoxy}-4-fluorophenyl)-3-methyl-5-{[5-(trifluoromethyl)pyrazin-2-yl]amino}-1,2-thiazole-4-carboxamide]
> 20	Cc1nsc(Nc2cnc(C(F)(F)F)cn2)c1C(=O)Nc1ccc(OCC2CCN(CC(F)F)CC2(F)F)nc1 (centres unmarked) [Example 401, N-(6-{[1-(2,2-difluoroethyl)-3,3-difluoropiperidin-4-yl]methoxy}pyridin-3-yl)-3-methyl-5-{[5-(trifluoromethyl)pyrazin-2-yl]amino}-1,2-thiazole-4-carboxamide]
> 20	Cc1nsc(Nc2cnc(C(F)(F)F)cn2)c1C(=O)Nc1ccc(OCC2CCN(CCC(F)(F)F)CC2(F)F)nc1 (centres unmarked) [Example 402, N-(6-{[3,3-difluoro-1-(3,3,3-trifluoropropyl)piperidin-4-yl]methoxy}pyridin-3-yl)-3-methyl-5-{[5-(trifluoromethyl)pyrazin-2-yl]amino}-1,2-thiazole-4-carboxamide]
> 20	Cc1nsc(Nc2cnc(C(F)(F)F)cn2)c1C(=O)Nc1ccc(F)c(OC[C@@H]2CCN(CC(F)F)C2)c1 [Example 403, N-(3-{[(3R)-1-(2,2-difluoroethyl)pyrrolidin-3-yl]methoxy}-4-fluorophenyl)-3-methyl-5-{[5-(trifluoromethyl)pyrazin-2-yl]amino}-1,2-thiazole-4-carboxamide]
